Source: patent US20250115640A1, “NEUROPROTECTIVE POLYPEPTIDE COMPOUND AND APPLICATION THEREOF” (Innerse (Zhuhai) Pharmaceutical Co., Ltd., priority 2021, published 2025)
Values joined by “and” are separate entries in the source; they are usually repeats but may differ in a detail not shown here. Equal values may be shown once. “Also recorded” adds a separate entry of the source. Square brackets hold non-standard residues; d marks the D form. Ends that are not written are not given here. Peptide text beside a SMILES is read from it. βAla = NCCC(=O)O

Tests used:
[1] = Body weight of MCAO model animals (Example 6); assay type: in vivo, Sprague-Dawley (SD) rats; conditions: individual animal
Experimental: • Animals measured: all the surviving experimental animals planned to be measured; • Measurement time: the body weight was measured at least twice during the adaptation period, once 24 hours before surgery for grouping, and once 24 hours after surgery.
Cerebral ischemia-reperfusion is an acute injury model, wherein the weight of experimental animals will drop dramatically after MCAO modeling. Thus, the weight of experimental animals is one of the most basic sensitive parameters to comprehensively reflect the health status of animals. In this experiment, the body weight of all the animals was monitored on the day before the surgery and on the first day after the surgery, and the changes of animal's body weight were observed and recorded.

[2] = General status observation and autopsy findings of MCAO model animals (Example 6); assay type: in vivo, Sprague-Dawley (SD) rats; conditions: 24 hours after administration; single animals
Experimental: After the adaptation period, animals weighing 240-290 g were selected for dividing into groups for modeling. 24 hours after administration, the animal numbered 2M006 in the S3 group was found dead. […] The data of the above animals was not included in the final statistical analysis. The data of the remaining animals in each group was included in the final statistical analysis. The number of animals included in the final statistical analysis was 8 animals for the model control group, 7 animals for S3 group, 9 animals for the t-PA group and 7 animals for S3+t-PA group.
• Animals observed: all the surviving animals planned to be observed; • Observation time: once a day, and the frequency can be increased if the animal starts to behave abnormal; • What were observed: including but not limited to general manifestations, behavioral status, eye, mouth, nose and mouth area, ear, hair and skin, feces, urine, genital organ and other toxic symptoms. A detailed description was required if there was any abnormality.

[3] = system: rat model of cerebral ischemia via middle cerebral artery occlusion (MCAO); experiment: Rat MCAO cerebral ischemia model, TTC staining, cerebral infarct volume (Example 5); assay type: in vivo, SD rats; conditions: 3 mg/kg tail vein 1-2 h after ligation, TTC after 22-24 h
Experimental: In order to determine use of the synthetic peptides provided herein in a neurological disease, SD rats were used to prepare a rat model of cerebral ischemia via middle cerebral artery occlusion (MCAO). These rats were injected intravenously 1-2 hours after ischemia, and subjected for a behavioral observation and scoring after 22-24 hours. After the behavioral observation, the rats were euthanized and their brains were removed, cut to sections and stained with TTC for quantitative analysis, and the cerebral infarct volume % was calculated. The experimental SD rats were weighed and anesthetized with chloral hydrate. After anesthesia, the limbs of the rats were fixed, and the rats were placed in a supine position, connected to the small-animal monitor, and monitored for important physiological parameters such as body temperature, blood pressure and heart rate, etc. The rats were shaved at neck and disinfected with 75% alcohol cotton ball. […] The experimental rats were monitored with the small-animal monitor to evaluate if their physiological parameters were normal, and the rats were placed on a small-animal electric blanket to keep their body temperature until they waked up and placed in animal cages. […] The quantitative analysis of photos after TTC staining was performed using Image J software. […]

[4] = system: rat model of cerebral ischemia via middle cerebral artery occlusion (MCAO); experiment: Rat MCAO cerebral ischemia model, behavioral observation and scoring 0-5 (Example 5); assay type: in vivo, SD rats; conditions: 3 mg/kg tail vein, scoring 22-24 h after ligation, scale 0-5; for Behavioral score, mean value: group mean, 6 rats
Experimental: In order to determine use of the synthetic peptides provided herein in a neurological disease, SD rats were used to prepare a rat model of cerebral ischemia via middle cerebral artery occlusion (MCAO). These rats were injected intravenously 1-2 hours after ischemia, and subjected for a behavioral observation and scoring after 22-24 hours. After the behavioral observation, the rats were euthanized and their brains were removed, cut to sections and stained with TTC for quantitative analysis, and the cerebral infarct volume % was calculated. The experimental SD rats were weighed and anesthetized with chloral hydrate. After anesthesia, the limbs of the rats were fixed, and the rats were placed in a supine position, connected to the small-animal monitor, and monitored for important physiological parameters such as body temperature, blood pressure and heart rate, etc. The rats were shaved at neck and disinfected with 75% alcohol cotton ball. A middle incision of about 2 cm length was then made on the neck of the rats, and the submandibular gland of the rats was bluntly separated while avoiding damage to the gland. Then, the left common carotid artery (CCA) of the rats was bluntly separated, and the internal carotid artery (ICA) and external carotid artery (ECA) were carefully separated upward along the CCA. Any damage to vagus nerves was avoided during the separation. The CCA and ICA were clamped respectively with two artery clamps, and the distal end of the ECA was cut off. A silicone suture emboli was inserted into the ECA “port” to the ICA artery clamp. Then the artery clamp was quickly loosened and the tip of the suture emboli was pushed forward through the artery clamp quickly before clamping the ICA again. […] The experimental rats were monitored with the small-animal monitor to evaluate if their physiological parameters were normal, and the rats were placed on a small-animal electric blanket to keep their body temperature until they waked up and placed in animal cages. […]

[5] = system: acute ischemic stroke due to large vessel occlusion; conditions: cited from earlier work

Row | Molecule | Body weight D 2, individual animals ([1]; after surgery and administration) | Body weight D 0, individual animals ([1]; before surgery (baseline)) | Death and autopsy findings in animals excluded from statistical analysis [2] | Cerebral infarct volume (TTC quantification), mean value ([3]; group mean, 6 rats) | Cerebral infarct volume (TTC quantification), individual rats No. 1-6 ([3]; individual rat, listed as S1(NA1)) | Behavioral score, mean value [4] | Behavioral score, mean value ([4]; listed as NA1) | Behavioral score, individual rats No. 1-6 ([4]; individual rat) | Serious adverse events ([5]; human, in vivo) | Proportion of patients with an mRS score of 0-2 within 90 days ([5]; single dose of 2.6 mg/kg, maximum 270 mg, 549 patients, placebo 59.2%) [%]
1 | CC[C@H](C)[C@H](NC(=O)[C@H](CO)NC(=O)[C@H](CO)NC(=O)[C@H](CC(C)C)NC(=O)[C@H](CCCCN)NC(=O)[C@H](Cc1c[nH]cn1)NC(=O)CCN)C(=O)N[C@@H](CCC(=O)O)C(=O)N[C@@H](CO)C(=O)N[C@@H](CC(=O)O)C(=O)N[C@H](C(=O)O)C(C)C [Example S3, beta-Ala-His-Lys-Leu-Ser-Ser-Ile-Glu-Ser-Asp-Val] (H-[βAla]HKLSSIESDV-OH) | 232.57 g and 249.67 g and 201.22 g and 228.45 g and 202.45 g and 195.33 g and 217.36 g | 281.72 g and 266.48 g and 253.24 g and 286.91 g and 258.64 g and 247.34 g and 273.73 g | found dead; also recorded: subarachnoid hemorrhage |  |  |  |  |  |  | 
2 | YGRKKRRQRRRKLSSIESDV [Example S1] |  |  |  | 0.157 | 0.187 and 0.218 and 0.153 and 0.145 and 0.107 and 0.134 | 2.0 | 2.0±0.6 | 2 (4×) and 1 and 3 | occurred equally between groups | 61.4
